Source: patent US20120258975A1, “Potent Small Molecule Inhibitors of Autophagy, and Methods of Use Thereof” (Shanghai Institute of Organic Chemistry, priority 2009, published 2012)

Assays:
[1] = system: LC3-GFP (H4-LC3-GFP cells); experiment: Starvation induced autophagy in H4-LC3-GFP cells; assay type: cell-based; details: Hanks buffer 1 h; MBCQ 5 μM, 3-MA 10 mM, wortmannin 0.1 μM
Description: FIG. 2 depicts results relating to MBCQ inhibition of autophagy induced by starvation. Quantitative measurement of LC3-GFP spot number per cell (a), spot size per cell (b) and spot intensity per cell (c) using HCS and expressed as % of control.

LC3II in liver = experiment: Autophagy in liver of rapamycin injected mice; assay type: in vivo; details: rapamycin 10 mg/kg, 40 mg/kg intraperitoneally every hour for 4 h
Procedure: FIG. 13 depicts results showing the effect of MBCQ and derivatives in vivo. (A) Mice were injected with rapamycin (10 mg/kg) alone as a positive control, or with C43 or MBCQ (40 mg/kg) intraperitoneally every hour for 4 h and then sacrificed at 5 th h. The autophagy levels in liver were analyzed by western blotting using anti-LC3 antibody. (B) C43 reduces the levels of autophagy induced by cerulein. Rats were injected intraperitoneally with cerulein (50 μg/kg) alone or with C43 (40 mg/kg) hourly for 4 times. The rats were sacrificed at one h after the last injection and the pancreas were isolated for western blotting analysis using anti-LC3 and anti-tubulin (as a control).
To begin to test the effect of MBCQ derivatives in vivo, the ability of MBCQ derivatives to inhibit autophagy in rapamycin injected mice was investigated. Mice were injected with rapamycin (10 mg/kg) alone as a positive control, or with C43 or MBCQ (40 mg/kg) intraperitoneally every hour for 4 h and then sacrificed at the fifth hour. The autophagy levels in liver were then analyzed by western blotting using anti-LC3 antibody. […] Thus, it was determined that C43 and MBCQ are both active in vivo in inhibiting autophagy.

PI3P (FYVE-RFP) = experiment: FYVE-RFP spots in H4-FYVE cells; assay type: cell-based; details: 10 μM; for levels of FYVE-RFP spots: basal and rapamycin treated H4 cells
Procedure: H4-FYVE cells were treated with DMSO (0.1%), MBCQ (10 μM) or C43 (spautin) (10 μM) for indicated time. A, The images were analyzed by fluorescence microscopy and quantified by HCS after fixing in 4% paraformaldehyde and stained with 4,6-diamidino-2-phenylindole (DAPI, 3 μg/mL). Images of 1000 cells for each compound treatment were analyzed by ArrayScan HCS 4.0 Reader with a 20× objective (Cellomics, Pittsburgh, Pa.). B, H4-FYVE cells were treated with DMSO (0.1%), RAPA (0.2 μM) alone, MBCQ (10 μM) or C43 (spautin) (10 μM) with or without RAPA (0.2 uM) for 8 h. The cell lysates were collected for western blotting using anti-RFP and anti-tubulin as a loading control.
The levels of PtdIns3P (PI3P) are known to play a critical role in mediating autophagy (Levine, B., and Klionsky, D. J. (2004). Development by self-digestion: molecular mechanisms and biological functions of autophagy. Dev Cell 6, 463-477). To ask if MBCQ has an effect on PI3P, H4 cells expressing FYVE-RFP were used. FYVE binds specifically to PI3P and is widely used as a marker for cellular levels for PI3P (Gaullier, J. M., Simonsen, A., D'Arrigo, A., Bremnes, B., Stenmark, H., and Aasland, R. (1998). FYVE fingers bind PtdIns(3)P. Nature 394, 432-433).

LC3II = experiment: Endogenous LC3II western blot in H4-LC3, 293T and MEF cells; assay type: cell-based; details: MBCQ and rapamycin co-treated versus rapamycin alone
Procedure: To confirm the inhibition of autophagy by MBCQ, H4-LC3 cells, 293T cells and mouse embryonic fibroblast cells were treated with MBCQ and the levels of endogenous LC3II were measured by western blot.

[2] = system: ubiquitin-proteasomal degradation pathway; experiment: Proteasomal degradation pathway (pEGFP-CL1, polyubiquitination); assay type: cell-based
Procedure: In addition, the effect of MBCQ on proteasomal degradation pathway using pEGFP-CL1, a GFP fusion with a short-lived peptide was determined (Bence, N. F., Sampat, R. M., and Kopito, R. R. (2001). Impairment of the ubiquitin-proteasome system by protein aggregation. Science 292, 1552-1555).

[3] = system: USP3, USP10, USP13, USP16, USP18; experiment: USP protein levels (western blot)
Procedure: H4 cells were transfected with indicated siRNAs for 72 hrs or treated with rapamycin (0.2 μM) or spautin (10 μM) for 4 hrs, and non-target siRNA (N. T. siRNA) was used as negative control. The cell lysates were harvested and analyzed by western blotting using (Left): antibodies specific for the indicated proteins. Anti-α-tubulin was used as loading controls.

MEF cells = experiment: Electron microscopy of MEF cells; assay type: cell-based, mouse; details: rapamycin (0.2 μM) plus compound, 4 h
Procedure: (§1) FIG. 5 depicts results related to showing that active derivatives of MBCQ reduce the levels of LC3II in MEF cells. […] The cell lysates were collected for western blotting using anti-LC3 antibody. B, Electron microscopy confirmation of the autophagy inhibitory effects of C43 (spautin) on MEF cells. MEF cells were treated with vehicle control (1‰ DMSO), and other indicated compounds for 4 h. Rapamycin (0.2 μM) and C43 (spautin) (10 μM). Then the cells were fixed with glutaraldehyde and prepared the sample for EM assay. Bar, 1:11,000. Arrows indicate double and multi-membrane autophagosomic vesicles. N: nucleus.
The effect of C29 and C43 on autophagy was further confirmed by electron microscopy. In rapamycin treated MEF cells, numerous autophagosome vesicles with double membranes were observed, as well as many vesicles with multi-membrane as expected (FIG. 5B).

[4] = molecular target: USP10 and USP13 interaction (Homo sapiens, UniProt Q14694+Q92995); experiment: GFP-USP10 / Myc-USP13 co-immunoprecipitation in 293T cells
LC3 = LC3 western blotting in MEF cells; assay type: cell-based, mouse; details: 4 hours, 10 μM, rapamycin 0.2 μM
Procedure: as §1
To confirm the inhibitory activity on autophagy, mouse embryo fibroblasts (MEF) cells were treated with C29, C43 or C71 for 4 hours in the presence or absence of rapamycin and the levels of autophagy were determined by LC3 western blotting. […] (FIG. 5A).

MDA-MB-231 cells = experiment: MDA-MB-231 cell survival under serum free condition; assay type: cell-based
Procedure: Since autophagy is activated under metabolic stress conditions to support cell survival, compounds were tested to determine if they promote cell death under starvation condition.

USP10 and USP13 interaction, sequence (Q14694 whole entry): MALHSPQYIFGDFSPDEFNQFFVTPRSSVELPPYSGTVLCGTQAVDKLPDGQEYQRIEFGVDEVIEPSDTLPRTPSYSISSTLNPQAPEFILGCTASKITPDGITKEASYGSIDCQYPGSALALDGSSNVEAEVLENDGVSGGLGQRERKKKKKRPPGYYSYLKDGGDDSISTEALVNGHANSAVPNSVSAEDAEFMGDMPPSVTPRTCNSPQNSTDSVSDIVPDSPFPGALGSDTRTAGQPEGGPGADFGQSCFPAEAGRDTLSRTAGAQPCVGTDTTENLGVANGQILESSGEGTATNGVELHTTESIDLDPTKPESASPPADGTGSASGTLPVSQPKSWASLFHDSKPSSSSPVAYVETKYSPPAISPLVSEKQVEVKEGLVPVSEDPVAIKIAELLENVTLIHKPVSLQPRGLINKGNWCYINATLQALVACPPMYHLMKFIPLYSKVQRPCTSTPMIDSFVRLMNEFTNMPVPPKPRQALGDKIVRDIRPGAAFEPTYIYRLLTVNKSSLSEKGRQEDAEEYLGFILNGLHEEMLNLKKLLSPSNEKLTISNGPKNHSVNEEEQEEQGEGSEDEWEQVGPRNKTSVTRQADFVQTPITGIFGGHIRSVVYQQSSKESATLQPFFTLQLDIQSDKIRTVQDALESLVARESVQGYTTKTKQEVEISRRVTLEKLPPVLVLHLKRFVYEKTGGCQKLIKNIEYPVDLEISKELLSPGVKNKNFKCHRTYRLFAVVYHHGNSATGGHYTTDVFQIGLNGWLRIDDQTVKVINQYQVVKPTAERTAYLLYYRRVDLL
USP10 and USP13 interaction, sequence (Q92995 whole entry): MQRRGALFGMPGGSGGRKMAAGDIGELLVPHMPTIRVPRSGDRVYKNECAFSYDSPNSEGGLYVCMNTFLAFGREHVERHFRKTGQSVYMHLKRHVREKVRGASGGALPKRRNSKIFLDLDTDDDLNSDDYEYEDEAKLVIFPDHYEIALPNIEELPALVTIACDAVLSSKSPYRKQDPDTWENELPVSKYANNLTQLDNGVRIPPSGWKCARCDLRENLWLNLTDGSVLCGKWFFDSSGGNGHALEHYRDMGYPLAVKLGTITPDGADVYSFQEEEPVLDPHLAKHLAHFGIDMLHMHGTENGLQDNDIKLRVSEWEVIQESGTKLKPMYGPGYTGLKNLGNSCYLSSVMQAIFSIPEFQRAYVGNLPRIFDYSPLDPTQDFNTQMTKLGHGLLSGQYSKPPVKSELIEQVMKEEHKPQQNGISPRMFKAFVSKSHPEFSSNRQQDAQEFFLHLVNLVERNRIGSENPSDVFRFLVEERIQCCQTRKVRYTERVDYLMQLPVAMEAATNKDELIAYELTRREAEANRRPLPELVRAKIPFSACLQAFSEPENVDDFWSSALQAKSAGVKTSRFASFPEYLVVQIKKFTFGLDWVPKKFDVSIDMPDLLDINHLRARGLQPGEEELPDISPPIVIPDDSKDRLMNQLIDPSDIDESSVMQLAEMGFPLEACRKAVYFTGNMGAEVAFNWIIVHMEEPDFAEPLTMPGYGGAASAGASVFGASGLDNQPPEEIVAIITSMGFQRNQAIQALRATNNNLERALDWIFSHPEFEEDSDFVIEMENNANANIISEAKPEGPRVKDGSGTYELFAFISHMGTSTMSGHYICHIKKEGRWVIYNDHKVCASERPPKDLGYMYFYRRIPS

SMILES	starvation induced autophagy (LC3-GFP spot number, size, intensity) [1]	levels of LC3II in liver (LC3II in liver)	levels of FYVE-RFP spots (PI3P (FYVE-RFP))	levels of LC3II (LC3II)	general levels of polyubiquitination [2]	levels of pEGFP-CL1 [2]	levels of USP13 and USP10 ([3]; 293T cells and Bcap-37 cells)	levels of USP44 ([3]; 293T cells and Bcap-37 cells)	levels of USP3, USP10, USP13, USP16 and USP18 ([3]; H4 cells, 10 μM, 4 hrs)	autophagosomes (MEF cells)	GFP-USP10 and Myc-USP13 interaction [4]	autophagy induced by rapamycin (LC3 western blotting) (LC3)	protein levels of FYVE-RFP by western blotting (PI3P (FYVE-RFP))	cell survival (MDA-MB-231 cells)
Clc1ccc2ncnc(NCc3ccc4c(c3)OCO4)c2c1 [MBCQ]	significantly reduced	significantly reduced the levels of LC3II	rapidly and effectively reduced the levels of FYVE-RFP spots	consistently reduced	no effect on the general levels of polyubiquitination	does not affect the levels of pEGFP-CL1	–	–	–	–	–	–	–	–
Fc1ccc(CNc2ncnc3ccc(F)cc23)cc1 [C43, 6-fluoro-N-(4-fluorobenzyl)quinazolin-4-amine]	–	significantly reduced the levels of LC3II	reduce FYVE-RFP spots	–	–	–	reduce the levels of USP13 and USP10	little effect	reduced the levels of these five USPs	autophagosomes are largely absent	the interaction was inhibited	inhibited autophagy induced by rapamycin	no effect on the protein levels of FYVE-RFP	reduced the survival
